Values joined by “and” are separate entries in the source; they are usually repeats but may differ in a detail not shown here. Identical values can stand only once.
Experiments:
Assay type in all cases: cell-based, human
IL-6 gene = assay: Real-time PCR, IL-6 gene expression; conditions: relative to untreated control (1)
Protocol: The expression level of the following six genes (Ki-67, Survivin, Interleukin-1 beta (IL-1B), Interleukin-6 (IL-6), Cyclooxygenase-2 (COX-2) and protein kinase B (AKT1)) was determined in MCF7 and HEP2 treated with the IC50 of compound 5c. The untreated cells were used as a negative control for comparison purposes. […] Ki-67 is a popular proliferation marker for human tumor cells. […] Survivin is an inhibitor of apoptotic protein (IAP) family member, which is essential for cell division. The lowering of the expression of survivin inhibited tumor development, triggered apoptosis, and made tumor cells more susceptible to radiation and chemotherapy (Albadari and Li [2023]). […] IL-1B is a pleiotropic mediator of inflammation, which is produced in response to a variety of stressors (Aarreberg et al. [2019]). […] IL-6 is a pro-inflammatory cytokine that plays a significant role in the proliferation and differentiation of human cells. It promotes the production of numerous proteins involved in acute inflammation (Uciechowski and Dempke [2020]). […]
The expression level of the following six genes (Ki-67, survivin, AKT1, IL-6, COX2, and IL-1B) was examined using real-time polymerase chain reaction (qPCR) (Mohamed et al. [2023a]). […] The cycle threshold (Ct) was determined automatically. […]

MCF7 cells [1] = assay: Flow cytometric analysis of cell cycle, MCF7; conditions: MCF7, IC50 of 5c, 48 h
Protocol: In DMEM-supplemented media, cells were plated in 12-well plates at a cell density of 6–8×10^5 per well. After twenty-four hours, cells were cultured for an additional 48 hours with the IC50 of the target compound. The untreated cells were used as a negative control. After 48 h of incubation, the treated cells were centrifuged at 1,200 rpm and 4 °C for 10 min. After discarding the supernatant, the wells were then given a single phosphate-buffered saline (PBS) wash and then centrifuged for 10 min at 1,200 rpm. Trypsin/EDTA was used to collect the cells, and after one PBS wash, they were resuspended in 0.5 mL of 0.05% Triton X-100 for 10 min at room temperature. Each cell suspension was stained by being given 1 mL of 50 µg/mL propidium iodide (PI) to be left at room temperature in the darkness for 20 minutes. The analysis of the cell cycle was done by a flow cytometer (Becton Dickenson (BD) FACSCalibur, USA) (Michalkova et al. [2022]).

MCF7 cells [2] = assay: Wound healing scratch assay, MCF7; conditions: MCF7, 5c at its IC50, 48 h; untreated C0 518.531±12.437, C48 h 160.647±61.276
Protocol: To examine the effect of chalcone 5c on the migration properties of the MCF7 and HEP2 cells, the wound-healing scratch assay was used. […] Chalcone 5c at its IC50 reduced the ability to close the scrape wound and decreased the number of migrating MCF7 and HEP2 cells compared to the untreated cells (Fig. 4 and Table 6). The scratch gap percentage in 5c treated MCF7 was 344.684±41.224 relative to the control cells (160.647±61.276) after 48 h of treatment. The scratch gap in HEP2 treated with 5c was 567.281±112.789 compared to the untreated control HEP2 cells (211.604±79.883) after 48 h.
MCF7 and HEP2 treated and untreated cells were detached from the tissue culture plate using 0.25% Trypsin-EDTA solution. Cells pellet was prepared in a 15 mL conical tube by centrifugation. The supernatant was aspirated, and the cells were re-suspended in culture media. The appropriate number of cells was platted in a 6-well plate for 100% confluence in 24 hours. In a sterile environment (typically a biosafety hood), a 200 μL pipette tip was used to press firmly against the […] of the tissue culture plate and swiftly made a vertical wound down through the cell monolayer. Carefully, the media and cell debris were aspirated. Slowly, enough culture media was added against the good wall to cover the bottom of the well and avoid detaching additional cells. […]

COc1ccc(NC(=O)COc2ccc(C=CC(=O)c3cccs3)cc2)cc1 [Compound 5c, N-(4-Methoxyphenyl)-2-(4-(3-oxo-3-(thiophen-2-yl)prop-1-en-1-yl)phenoxy)acetamide] was tested, and the IL-6 expression folding (IL-6 gene; HEP2 cells treated with IC50 of 5c) was 0.464±0.08 fold, the IL-6 expression folding (IL-6 gene; MCF7 cells treated with IC50 of 5c) was 0.814±0.079 fold and the “Percentage of DNA in G2-M phase” value (MCF7 cells [1]; untreated control 8.95±0.38) was 2.8% and 2.855±0.07778%. The “Percentage of DNA in S phase” value (MCF7 cells [1]; untreated control 45.405±1.97283) was 42.84% and 42.845±0.4596%, the “Percentage of DNA in G0-G1 phase” value (MCF7 cells [1]; untreated control 45.585±1.548) was 54.3% and 54.3±0.5374% and the “% Scratch gap” value (MCF7 cells [2]) was 344.684±41.224%.
